Results on three compounds are retold here after publication PMC7979765, “trans-Translation inhibitors bind to a novel site on the ribosome and clear Neisseria gonorrhoeae in vivo” (Nature Communications, 2021).

The structures appear in SMILES notation. In brackets after ≈: the same amount, converted by molar mass. Several values for one entry are separate records, joined by “and”; a condition that tells them apart may be missing. Equal entries are not always repeated.

One data set concerns Neisseria gonorrhoeae. Kind of data set: MIC, microbroth dilution, G77L medium. It counts as cell-based. Conditions: Neisseria gonorrhoeae ATCC 49226; source data, individual replicates.
Data set [1] concerns HeLa cells. The experiment in a line: Mammalian cell cytotoxicity (CC50). It counts as cell-based, human. Conditions: HeLa, replicates. The method, then: The half maximal cytotoxic concentration (CC50) of each compound against HeLa cells (ATCC CCL-2) was measured as previously described. […] The mean values for each biological replicate were averaged, and the CC50 was determined using a 4-parameter nonlinear curve fitting algorithm (GraphPad Prism). The average of the CC50s from two biological replicates was calculated and reported.

Data set [2] in a line: Liver microsome stability, murine. It counts as in vitro ADME, mouse. Conditions: murine liver microsomes; for Average MLMS t½: average of replicates; for MLMS t½: individual replicates. The method, then:
To examine potential for first-pass metabolism of analogs in the liver, the stability of analogs in the presence of liver microsome preparations (Eurofins Discovery for human, dog and rat; Xenotech for mouse) was measured using the method of Kuhnz, et al.[50]. for murine studies and Oback for the dog, human and rat studies. The amount of parent compound remaining after incubation with microsomes in the presence of NADPH over a 30 min time range was measured using a reverse-phase liquid chromatography/mass spectroscopy method that was customized for each compound. Half-lives were calculated using linear regression analysis of several time points.
Background: Liver microsomes are vesicles of endoplasmic reticulum, rich in cytochrome P450 enzymes.

The nature of data set [3]: Aqueous solubility (nephelometric). Format: physicochemical. The conditions noted are these: for Solubility: single replicates.
A further data set has as its system Escherichia coli. The experiment in a line: microbe, parasite or virus in culture. Format: cell-based. The conditions noted are these: E. coli KLE701 (ΔtolC::tet); source data, individual replicates.
Data set [4] deals with HeLa cells. The experiment in a line: Mammalian cell cytotoxicity (CC50). Format: cell-based, human. The conditions noted are these: one value per replicate.

One may read the Solubility as how much of the substance goes into solution per volume. A word on the CC50: it is the concentration giving 50% cytotoxicity. A low value points to greater toxicity to the cells. For `O=C(Nc1nnc(-c2ccc(F)cc2)o1)N1CCCCC1` [MBX-4699], the MIC in the data set on Neisseria gonorrhoeae is 0.9072 µg/mL (≈ 3.13 µM); with Escherichia coli it was 7.257 µg/mL (≈ 25 µM). The “NORMALIZED DATA (Fraction DMSO Control)” value with HeLa cells [1] ([CMPD] 0.78125 µM) is 1.206 Fraction DMSO Control and 0.9471 Fraction DMSO Control and 1 Fraction DMSO Control; with HeLa cells [1] ([CMPD] 1.5625 µM), 1.141 Fraction DMSO Control and 0.9447 Fraction DMSO Control and 0.9657 Fraction DMSO Control; in the data set with HeLa cells [1] ([CMPD] 3.125 µM) it was 1.163 Fraction DMSO Control and 1.061 Fraction DMSO Control and 1.0891 Fraction DMSO Control; in the data set on HeLa cells [1] ([CMPD] 6.25 µM) it was 1.089 Fraction DMSO Control and 1.109 Fraction DMSO Control and 1.081 Fraction DMSO Control; in the data set on HeLa cells [1] ([CMPD] 12.5 µM), 0.7963 Fraction DMSO Control and 0.7071 Fraction DMSO Control and 0.8639 Fraction DMSO Control; with HeLa cells [1] ([CMPD] 25 µM), 0.8798 Fraction DMSO Control and 0.8258 Fraction DMSO Control and 0.8774 Fraction DMSO Control. The “NORMALIZED DATA (Fraction DMSO Control)” value in the data set on HeLa cells [1] ([CMPD] 50 µM) was 0.9431 Fraction DMSO Control and 0.7958 Fraction DMSO Control and 0.7843 Fraction DMSO Control; with HeLa cells [1] ([CMPD] 100 µM), 0.7918 Fraction DMSO Control and 0.6844 Fraction DMSO Control and 0.6971 Fraction DMSO Control. Also, the “Average MLMS t½” value in data set [2] amounted to 12 min. The “MLMS t½” value in data set [2] is 10.1 min and 13.2 min. In addition, in data set [3], the “Average solubility” value was 50 µM. For the same compound, the Solubility in data set [3] came to 50 µM (≈ 14.5 µg/mL). Further, the half-maximal cytotoxic concentration (CC50) with HeLa cells [4] was ≥ 100 µM.

For the compound `O=C(Nc1nnc(-c2ccc(F)cc2)o1)C1CCCCC1` [MBX-3709], the MIC in the data set with Neisseria gonorrhoeae is 7.233 µg/mL and 3.616 µg/mL; against Escherichia coli, 28.931 µg/mL (≈ 100 µM). In addition, the “NORMALIZED DATA (Fraction DMSO Control)” value in the data set with HeLa cells [1] ([CMPD] 0.78125 µM) was 0.9843 Fraction DMSO Control and 0.9839 Fraction DMSO Control and 1.011 Fraction DMSO Control and 0.9844 Fraction DMSO Control and 1.002 Fraction DMSO Control and 0.9797 Fraction DMSO Control; in the data set with HeLa cells [1] ([CMPD] 1.5625 µM), 1.013 Fraction DMSO Control and 1.069 Fraction DMSO Control and 1.052 Fraction DMSO Control and 1.032 Fraction DMSO Control and 1.012 Fraction DMSO Control and 1.033 Fraction DMSO Control; in the data set on HeLa cells [1] ([CMPD] 3.125 µM) it was 1.017 Fraction DMSO Control and 1.012 Fraction DMSO Control and 1.028 Fraction DMSO Control and 1.006 Fraction DMSO Control and 0.9958 Fraction DMSO Control and 1.035 Fraction DMSO Control; in the data set on HeLa cells [1] ([CMPD] 6.25 µM) it was 0.9952 Fraction DMSO Control and 1.018 Fraction DMSO Control and 1.016 Fraction DMSO Control and 1.009 Fraction DMSO Control and 1.013 Fraction DMSO Control and 1.001 Fraction DMSO Control; in the data set with HeLa cells [1] ([CMPD] 12.5 µM), 1.025 Fraction DMSO Control and 1.013 Fraction DMSO Control and 1.022 Fraction DMSO Control and 1.004 Fraction DMSO Control and 1.002 Fraction DMSO Control and 1.0412 Fraction DMSO Control; in the data set on HeLa cells [1] ([CMPD] 25 µM) it was 1.006 Fraction DMSO Control and 1.033 Fraction DMSO Control and 1.009 Fraction DMSO Control and 1.014 Fraction DMSO Control and 0.9855 Fraction DMSO Control and 1.046 Fraction DMSO Control. The “NORMALIZED DATA (Fraction DMSO Control)” value was 0.7814 Fraction DMSO Control and 0.7858 Fraction DMSO Control and 0.7422 Fraction DMSO Control and 0.8088 Fraction DMSO Control and 0.7466 Fraction DMSO Control and 0.7859 Fraction DMSO Control with HeLa cells [1] ([CMPD] 50 µM); 0.7348 Fraction DMSO Control and 0.7441 Fraction DMSO Control and 0.7211 Fraction DMSO Control and 0.7931 Fraction DMSO Control and 0.7717 Fraction DMSO Control and 0.7681 Fraction DMSO Control with HeLa cells [1] ([CMPD] 100 µM). The “Average MLMS t½” value in data set [2] is <5 min. Moreover, the “MLMS t½” value in data set [2] is <5 min. For the same compound, in data set [3], the “Average solubility” value is 25 µM. In data set [3], this compound registered a Solubility of 25 µM (≈ 7.23 µg/mL). For the same compound, the CC50 in the data set with HeLa cells [4] was ≥ 100 µM.

For `O=C(Nc1nnc(-c2ccccc2)o1)c1ccc(Cl)cc1` [MBX-3910], the MIC with Neisseria gonorrhoeae was 0.2341 µg/mL and 0.1172 µg/mL; against Escherichia coli, 0.9366 µg/mL (≈ 3.12 µM). The “NORMALIZED DATA (Fraction DMSO Control)” value in the data set on HeLa cells [1] ([CMPD] 0.78125 µM) is 1.08 Fraction DMSO Control and 1.097 Fraction DMSO Control and 1.14 Fraction DMSO Control and 1.04 Fraction DMSO Control and 1.054 Fraction DMSO Control and 1.05 Fraction DMSO Control; with HeLa cells [1] ([CMPD] 1.5625 µM), 1.101 Fraction DMSO Control and 1.0991 Fraction DMSO Control and 1.152 Fraction DMSO Control and 1.073 Fraction DMSO Control and 1.065 Fraction DMSO Control and 1.0674 Fraction DMSO Control; with HeLa cells [1] ([CMPD] 3.125 µM), 1.088 Fraction DMSO Control and 1.064 Fraction DMSO Control and 1.13 Fraction DMSO Control and 1.029 Fraction DMSO Control and 1.037 Fraction DMSO Control and 1.067 Fraction DMSO Control; with HeLa cells [1] ([CMPD] 6.25 µM), 1.079 Fraction DMSO Control (2×) and 1.139 Fraction DMSO Control and 1.051 Fraction DMSO Control and 1.03 Fraction DMSO Control and 1.024 Fraction DMSO Control; in the data set on HeLa cells [1] ([CMPD] 12.5 µM) it was 1.036 Fraction DMSO Control and 1.056 Fraction DMSO Control and 1.0972 Fraction DMSO Control and 1.011 Fraction DMSO Control and 0.9941 Fraction DMSO Control and 0.9999 Fraction DMSO Control; with HeLa cells [1] ([CMPD] 25 µM) it was 0.7722 Fraction DMSO Control and 0.7686 Fraction DMSO Control and 0.9894 Fraction DMSO Control and 0.8554 Fraction DMSO Control and 0.8395 Fraction DMSO Control and 0.8785 Fraction DMSO Control. Moreover, the “NORMALIZED DATA (Fraction DMSO Control)” value in the data set on HeLa cells [1] ([CMPD] 50 µM) is 0.4225 Fraction DMSO Control and 0.4189 Fraction DMSO Control and 0.8248 Fraction DMSO Control and 0.6289 Fraction DMSO Control and 0.6212 Fraction DMSO Control and 0.6018 Fraction DMSO Control; in the data set with HeLa cells [1] ([CMPD] 100 µM), 0.1921 Fraction DMSO Control and 0.2466 Fraction DMSO Control and 0.6012 Fraction DMSO Control and 0.4687 Fraction DMSO Control and 0.4717 Fraction DMSO Control and 0.4092 Fraction DMSO Control. Further, in data set [2], the “Average MLMS t½” value is 5 min. For the same compound, in data set [2], the “MLMS t½” value amounted to 5 min. The “Average solubility” value in data set [3] is recorded as 12.5 µM. The compound further yielded a Solubility in data set [3] of 12.5 µM (≈ 3.75 µg/mL). The half-maximal cytotoxic concentration (CC50) with HeLa cells [4] was 42.1 µM and 40.9 µM and > 100 µM and 36.7 µM and 35.8 µM and 41 µM.
